Tested on: 873145-292-R-J1-PDC complex spheroid viability
Experiment: Anticancer human tumor 873145-292-R-J1-PDC patient-derived renal clear cell carcinoma cell line growth inhibition [POLQ]
Details: for IC50: curve of first compound; for viability, T/C: stronger effect = lower value
In short: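 Growth inhibition in 3D: complex spheroids (tumor PDC, HUVEC, MSC) treated with POLQ inhibitor combinations; where Cmax unknown, highest tested concentration 10 microM, except SN-38 at 1 microM.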

[1] = second compound 0.0316 µM, first compound 0.0316 µM
[2] = second compound 0.0316 µM, first compound 0.1 µM
[3] = second compound 0.0316 µM, first compound 0.316 µM
[4] = second compound 0.0316 µM, first compound 1 µM
[5] = second compound 0.0316 µM, first compound 3.16 µM
[6] = second compound 0.0316 µM, first compound 10 µM
[7] = second compound 0.1 µM, first compound 0.0316 µM
[8] = second compound 0.1 µM, first compound 0.1 µM
[9] = second compound 0.1 µM, first compound 0.316 µM
[10] = second compound 0.1 µM, first compound 1 µM
[11] = second compound 0.1 µM, first compound 3.16 µM
[12] = second compound 0.1 µM, first compound 10 µM
[13] = second compound 0.316 µM, first compound 0.0316 µM
[14] = second compound 0.316 µM, first compound 0.1 µM
[15] = second compound 0.316 µM, first compound 0.316 µM
[16] = second compound 0.316 µM, first compound 1 µM
[17] = second compound 0.316 µM, first compound 3.16 µM
[18] = second compound 0.316 µM, first compound 10 µM
[19] = second compound 1 µM, first compound 0.0316 µM
[20] = second compound 1 µM, first compound 0.1 µM
[21] = second compound 1 µM, first compound 0.316 µM
[22] = second compound 1 µM, first compound 1 µM
[23] = second compound 1 µM, first compound 3.16 µM
[24] = second compound 1 µM, first compound 10 µM
[25] = second compound 3.16 µM, first compound 0.0316 µM
[26] = second compound 3.16 µM, first compound 0.1 µM
[27] = second compound 3.16 µM, first compound 0.316 µM
[28] = second compound 3.16 µM, first compound 1 µM
[29] = second compound 3.16 µM, first compound 3.16 µM
[30] = second compound 3.16 µM, first compound 10 µM
[31] = second compound 10 µM, first compound 0.0316 µM
[32] = second compound 10 µM, first compound 0.1 µM
[33] = second compound 10 µM, first compound 0.316 µM
[34] = second compound 10 µM, first compound 1 µM
[35] = second compound 10 µM, first compound 3.16 µM
[36] = second compound 10 µM, first compound 10 µM
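Note: spheroids exposed to compounds for 7 days before viability readout.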
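Throughout, for viability, T/C: luminescence signal used as surrogate for viable cell content; 100% = DMSO vehicle control viability.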

CC(C)n1c(=O)n(C)c2cnc3cc(F)c(-c4ccc(OCCCN5CCCCC5)nc4)cc3c21 + COC1C(OC(N)=O)C(O)C(Oc2ccc3c(O)c(NC(=O)c4ccc(O)c(CC=C(C)C)c4)c(=O)oc3c2C)OC1(C)C
IC50 (second compound 0.0316 µM): > 10 µM | IC50 (second compound 0.1 µM): > 10 µM | IC50 (second compound 0.316 µM): > 10 µM | IC50 (second compound 1 µM): > 10 µM | IC50 (second compound 3.16 µM): > 10 µM | IC50 (second compound 10 µM): > 10 µM | viability, T/C [1]: 96% | viability, T/C [2]: 93% | viability, T/C [3]: 99.2% | viability, T/C [4]: 105% | viability, T/C [5]: 92.8% | viability, T/C [6]: 82.5% | viability, T/C [7]: 94% | viability, T/C [8]: 96.7% | viability, T/C [9]: 92.9% | viability, T/C [10]: 90% | viability, T/C [11]: 100% | viability, T/C [12]: 90.8% | viability, T/C [13]: 95.5% | viability, T/C [14]: 98.9% | viability, T/C [15]: 109% | viability, T/C [16]: 87.3% | viability, T/C [17]: 104% | viability, T/C [18]: 78.9% | viability, T/C [19]: 105% | viability, T/C [20]: 106% | viability, T/C [21]: 92.9% | viability, T/C [22]: 94.1% | viability, T/C [23]: 90.8% | viability, T/C [24]: 82.7% | viability, T/C [25]: 96% | viability, T/C [26]: 104% | viability, T/C [27]: 98.7% | viability, T/C [28]: 91.7% | viability, T/C [29]: 90.5% | viability, T/C [30]: 86.9% | viability, T/C [31]: 96.2% | viability, T/C [32]: 91.1% | viability, T/C [33]: 104% | viability, T/C [34]: 90.5% | viability, T/C [35]: 107% | viability, T/C [36]: 88.7%

CC1COCCN1c1cc(C2(S(C)(=N)=O)CC2)nc(-c2ccnc3[nH]ccc23)n1 (stereo unspecified) + COC1C(OC(N)=O)C(O)C(Oc2ccc3c(O)c(NC(=O)c4ccc(O)c(CC=C(C)C)c4)c(=O)oc3c2C)OC1(C)C
IC50 (second compound 0.0316 µM): > 10 µM | IC50 (second compound 0.1 µM): > 10 µM | IC50 (second compound 0.316 µM): > 10 µM | IC50 (second compound 1 µM): > 10 µM | IC50 (second compound 3.16 µM): > 10 µM | IC50 (second compound 10 µM): > 10 µM | viability, T/C [1]: 98.8% | viability, T/C [2]: 101% | viability, T/C [3]: 88.6% | viability, T/C [4]: 88.3% | viability, T/C [5]: 86.4% | viability, T/C [6]: 67.8% | viability, T/C [7]: 105% | viability, T/C [8]: 94.7% | viability, T/C [9]: 90.8% | viability, T/C [10]: 90.1% | viability, T/C [11]: 81.3% | viability, T/C [12]: 58.5% | viability, T/C [13]: 102% | viability, T/C [14]: 95.6% | viability, T/C [15]: 90% | viability, T/C [16]: 82.7% | viability, T/C [17]: 80.3% | viability, T/C [18]: 55.8% | viability, T/C [19]: 100% | viability, T/C [20]: 90.2% | viability, T/C [21]: 96.7% | viability, T/C [22]: 95.6% | viability, T/C [23]: 85.6% | viability, T/C [24]: 61.5% | viability, T/C [25]: 100% | viability, T/C [26]: 90.1% | viability, T/C [27]: 103% | viability, T/C [28]: 82.7% | viability, T/C [29]: 82.6% | viability, T/C [30]: 62.2% | viability, T/C [31]: 95.1% | viability, T/C [32]: 92.9% | viability, T/C [33]: 95.6% | viability, T/C [34]: 81.1% | viability, T/C [35]: 74.8% | viability, T/C [36]: 64.6%

COc1cc(C2c3cc4c(cc3C(OC3OC5COC(C)OC5C(O)C3O)C3COC(=O)C23)OCO4)cc(OC)c1O (stereo unspecified) + COC1C(OC(N)=O)C(O)C(Oc2ccc3c(O)c(NC(=O)c4ccc(O)c(CC=C(C)C)c4)c(=O)oc3c2C)OC1(C)C
IC50 (second compound 0.0316 µM): > 10 µM | IC50 (second compound 0.1 µM): > 10 µM | IC50 (second compound 0.316 µM): > 10 µM | IC50 (second compound 1 µM): > 10 µM | IC50 (second compound 3.16 µM): > 10 µM | IC50 (second compound 10 µM): > 10 µM | viability, T/C [1]: 104% | viability, T/C [2]: 108% | viability, T/C [3]: 103% | viability, T/C [4]: 99.1% | viability, T/C [5]: 80.3% | viability, T/C [6]: 57.2% | viability, T/C [7]: 112% | viability, T/C [8]: 101% | viability, T/C [9]: 101% | viability, T/C [10]: 96.2% | viability, T/C [11]: 72.5% | viability, T/C [12]: 53.8% | viability, T/C [13]: 114% | viability, T/C [14]: 99.4% | viability, T/C [15]: 100% | viability, T/C [16]: 87.4% | viability, T/C [17]: 72.9% | viability, T/C [18]: 54.3% | viability, T/C [19]: 96.2% | viability, T/C [20]: 95.5% | viability, T/C [21]: 101% | viability, T/C [22]: 86.2% | viability, T/C [23]: 79% | viability, T/C [24]: 53.4% | viability, T/C [25]: 107% | viability, T/C [26]: 106% | viability, T/C [27]: 104% | viability, T/C [28]: 86.6% | viability, T/C [29]: 70.9% | viability, T/C [30]: 57.7% | viability, T/C [31]: 103% | viability, T/C [32]: 103% | viability, T/C [33]: 95.5% | viability, T/C [34]: 94.5% | viability, T/C [35]: 76.7% | viability, T/C [36]: 67.2%

— PubChem BioAssay AID1963834 (Molecular Pharmacology Branch, DTP, NCI, 2024)
